Experimental data taken from PMC8401404 (Molecules, 2021).

Columns and labels:
[1] = tested on: E. coli ATCC 25922; experiment: Broth microdilution testing (CLSI); format: cell-based, Escherichia coli; details: Escherichia coli, ATCC25922; broth microdilution, 16–24h at 37 °C; read-out: MIC E. coli ATCC 25922
Procedure: (§1) Broth microdilution testing was performed according to CLSI (Clinical Laboratory Standards Institute) guidelines. MIC (minimal inhibitory concentration) value was defined as the last tested concentration of compound at which there is no visible growth of bacteria. […] Clinical and Laboratory Standards Institute (CLSI) guidelines.

[2] = tested on: A549; experiment: BrdU proliferation assay, 3D hanging drop cell culture; format: cell-based, human; details: Homo sapiens, A549, 3D, BrdU, n = 2, read-out: Proliferation Assay IC50 ± SD
Procedure: (§2) MTS assay gives us information about the number of living cells, in this case, metabolically active cells, whereas the BrdU proliferation assay gives a measure of the cell population in active division phase. Both assays were performed in 2D and 3D assay formats. For the 2D cell assay format, we used classic two-dimensional in vitro assays and as a 3D assay we used a hanging drop proliferation cell assay as previously described. We explored the activity of compounds on three human lung cancer cell lines, A549, HCC827 and NCI-H358. The compound activity was also tested on human lung fibroblast cell line MRC-5. A two-dimensional in vitro viability assay was performed on the MRC-5 cell line to see if tested compounds are cytotoxic on normal cell lines in low concentrations. […] 7.1.
(§3) Test compounds were synthesized by a research group at the Department of Organic Chemistry, Faculty of Chemical Engineering and Technology, University of Zagreb. […] Compounds were diluted 1:3. We transferred 500 nL (for 2D cell culture) or 400 nL (for 3D cell culture) of the compound from a mother plate to test plate by using Mosquito (TTP labtech). DMSO percentage in test concentrations was 0.5–1.0%. Starting concentration of the test compounds and standard compound doxorubicin was 50 µM (2D cell culture) or 100 µM (3D cell culture).
(§4) Cells were grown in 96-well Perfecta 3D hanging drop plates 5000 cell/well for 4 days until spheres were formed (and checked under the microscope). After sphere formation cells were treated with compounds followed by 72 h incubation. Cell viability assay was performed according to the manufacturer’s instructions, using CellTiter GLO 3D for 3D cell culture (Promega); cell incubation was 5 min on the shaker followed by 25 min incubation in the dark. Plates were read using PE EnVision luminescence.
(§5) Proliferation assay was performed using Cell Proliferation ELISA, BrdU (Sigma, St. Louis, MO, USA). Briefly, 48 h hours after compound addition, 10 µM of BrdU was added to each well and incubated for the following 24 h. After incubation, a single cell suspension was made for 3D cell culture in the new 96-well plate. Plates were centrifuged and supernatants were removed from each plate (for 2D and 3D cell culture) followed by 60 min incubation at 60 °C. The rest of the proliferation assay was performed according to the manufacturer’s instructions.
(§6) Calculation of IC50 data, curves and QC analysis was performed by using Excel tools and GraphPadPrism software (La Jolla, CA, USA), v. […] QC criteria parameters (Z’, S:B, R2, HillSlope) were checked for every IC50 curve.

[3] = tested on: NCI-H358; experiment: as above; format: cell-based, human; details: Homo sapiens, NCI-H358, 3D, n = 2, read-out: Proliferation Assay IC50 ± SD
Procedure: as §2, §3, §4, §5, §6

[4] = tested on: HCC827; experiment: as above; format: cell-based, human; details: Homo sapiens, HCC827, 3D, BrdU, n = 2, read-out: Proliferation Assay IC50 ± SD
Procedure: as §2, §3, §4, §5, §6

[5] = tested on: S. cerevisiae ATCC 7752; experiment: Broth microdilution testing (CLSI); format: cell-based, Saccharomyces cerevisiae; details: Saccharomyces cerevisiae, ATCC7752; broth microdilution, 16–24h at 37 °C; read-out: MIC S. cerevisiae ATCC 7752
Procedure: as §1

[6] = tested on: A549; experiment: BrdU proliferation assay, 2D cell culture; format: cell-based, human; details: Homo sapiens, A549, 2D, BrdU, n = 2, read-out: Proliferation Assay IC50 ± SD
Procedure: as §2, §3
(§7) Cells were grown in 96-well cell star polystyrene plates. We seeded 10,000 cells/well in wells 4 h prior to the treatment with different compounds concentrations and incubated for 72 h. A cell viability assay was performed according to the manufacturer’s instructions, using CellTiter 96 aqueous solution, MTS kit (Promega, Madison, WI, USA). After 0.5–2 h of cell incubation with MTS in 2D cell culture, the plates were read using PE EnVision absorbance at 490 nm.
as §5, §6

[7] = tested on: NCI-H358; experiment: BrdU proliferation assay, 2D cell culture; format: cell-based, human; details: Homo sapiens, NCI-H358, 2D, n = 2, read-out: Proliferation Assay IC50 ± SD
Procedure: as §2, §3, §7, §5, §6

[8] = tested on: HCC827; experiment: BrdU proliferation assay, 2D cell culture; format: cell-based, human; details: Homo sapiens, HCC827, 2D, BrdU, n = 2, read-out: Proliferation Assay IC50 ± SD
Procedure: as §2, §3, §7, §5, §6

[9] = tested on: A549; experiment: Cytotoxicity (viability) assay, 3D hanging drop cell culture; details: Homo sapiens, A549, 72 h, read-out: Cytotoxicity Assay IC50 ± SD; A549 3D
Procedure: as §2, §3, §4, §6

[10] = tested on: NCI-H358; experiment: as above; details: Homo sapiens, NCI-H358, 72 h, read-out: Cytotoxicity Assay IC50 ± SD; NCI-H358 3D
Procedure: as §2, §3, §4, §6

[11] = tested on: HCC827; experiment: as above; details: Homo sapiens, HCC827, 72 h, read-out: Cytotoxicity Assay IC50 ± SD; HCC827 3D
Procedure: as §2, §3, §4, §6

[12] = MTS cytotoxicity assay, 2D cell culture, normal lung fibroblasts; details: human, MRC-5 normal lung fibroblasts, 2D culture
Procedure: as §2, §3, §7, §6

[13] = tested on: A549; experiment: MTS cytotoxicity assay, 2D cell culture; details: Homo sapiens, A549, 72 h, read-out: Cytotoxicity Assay IC50 ± SD; A549 2D, 72 h, MTS; n = 2
Procedure: as §2, §3, §7, §6

[14] = tested on: NCI-H358; experiment: MTS cytotoxicity assay, 2D cell culture; details: Homo sapiens, NCI-H358, 72 h, read-out: Cytotoxicity Assay IC50 ± SD; NCI-H358 2D
Procedure: as §2, §3, §7, §6

[15] = tested on: HCC827; experiment: MTS cytotoxicity assay, 2D cell culture; details: Homo sapiens, HCC827, 72 h, read-out: Cytotoxicity Assay IC50 ± SD; HCC827 2D
Procedure: as §2, §3, §7, §6

[16] = tested on: S. aureus ATCC 29213; experiment: Broth microdilution testing (CLSI); format: cell-based, Staphylococcus aureus; details: Staphylococcus aureus, ATCC29213, broth microdilution, 16–24h at 37 °C; read-out: MIC S. aureus ATCC 29213
Procedure: as §1

| Compound | MIC [1] [µM] | melting point [°C] | IC50 [2] [µM] | IC50 [3] [µM] | IC50 [4] [µM] | MIC [5] [µM] | IC50 [6] [µM] | IC50 [7] [µM] | IC50 [8] [µM] | IC50 [9] [µM] | IC50 [10] [µM] | IC50 [11] [µM] | IC50 at 72 h [12] [µM] | IC50 [13] [µM] | IC50 [14] [µM] | IC50 [15] [µM] | MIC [16] [µM] |
| --- | --- | --- | --- | --- | --- | --- | --- | --- | --- | --- | --- | --- | --- | --- | --- | --- | --- |
| N#C/C(=C\c1ccc(-c2ccc([N+](=O)[O-])cc2)o1)c1nc2ccccc2[nH]1 [Compound 17, (E)-2-(Benzimidazol-2-yl)-3-[5-(4-nitrophenyl)furan-2-yl]acrylonitrile] | > 100 | 273 to 274 | > 100 | > 100 | > 100 | > 100 | > 50 | > 50 | > 50 | > 100 | > 100 | > 100 | > 50 | > 50 | > 50 | > 50 | > 100 |
| N#Cc1ccc2nc(-c3ccc(-c4ccc(Cl)cc4)o3)sc2c1 [Compound 7, 2-[5-(4-Chlorophenyl)furan-2-yl]-6-cyanobenzothiazole] | > 100 | 235 to 237 | > 100 | > 100 | > 100 | > 100 | > 50 | > 50 | > 50 | > 100 | > 100 | > 100 | > 50 | > 50 | > 50 | > 50 | > 100 |
| N#Cc1ccc2nc(-c3ccc(-c4ccc([N+](=O)[O-])cc4)o3)sc2c1 [Compound 4, 6-Cyano-2-[5-(4-nitrophenyl)furan-2-yl]benzothiazole] | > 100 | 276 to 279 | > 100 | > 100 | > 100 | > 100 | > 50 | > 50 | > 50 | > 100 | > 100 | > 100 | > 50 | > 50 | > 50 | > 50 | > 100 |
| N#C/C(=C\c1ccc(-c2ccc(Cl)cc2)o1)c1nc2ccccc2[nH]1 [Compound 20, (E)-2-(Benzimidazol-2-yl)-3-[5-(4-chlorophenyl)furan-2-yl]acrylonitrile] | > 100 | 292 to 294 | > 100 | > 100 | 0.16 ± 0.11 | > 100 | 43.9 ± 54.3 | 14.4 ± 6.46 | > 50 | > 100 | > 100 | 9.48 ± 1.15 | > 50 | > 50 | 31.1 ± 4.42 | 43.5 ± 8.17 | > 100 |
| N#C/C(=C\c1ccc(-c2ccc([N+](=O)[O-])cc2)o1)c1nc2ccccc2s1 [Compound 19, (E)-2-(Benzothiazol-2-yl)-3-[5-(4-nitrophenyl)furan-2-yl]acrylonitrile] | > 100 | 240 to 242 | > 100 | > 100 | > 100 | > 100 | > 50 | > 50 | > 50 | > 100 | > 100 | > 100 | > 50 | > 50 | > 50 | > 50 | > 100 |
| N#Cc1ccc2[nH]c(-c3ccc(-c4ccc(Cl)cc4)o3)nc2c1 [Compound 13, 2-[5-(4-Chlorophenyl)furan-2-yl]-5(6)-cyanobenzimidazole] | > 100 | 242 to 246 | > 100 | > 100 | > 100 | > 100 | 22.7 ± 0.54 | 15.7 ± 0.86 | > 50 | > 100 | > 100 | > 100 | > 50 | > 50 | > 50 | > 50 | > 100 |
| N#Cc1ccc2[nH]c(-c3ccc(-c4ccc([N+](=O)[O-])cc4)o3)nc2c1 [Compound 10, 5(6)-Cyano-2-[5-(4-nitrophenyl)furan-2-yl]benzimidazole] | > 100 | 242 to 246 | > 100 | > 100 | > 100 | > 100 | > 50 | > 50 | > 50 | > 100 | > 100 | > 100 | > 50 | > 50 | > 50 | > 50 | > 100 |
